# Square brackets hold non-standard residues; d marks the D form. Peptide text beside a SMILES is read from it. Nle = CCCC[C@H](N)C(=O)O
# Key:
# Hsp70 = test: Pulse-chase turnover of radiolabeled Hsp70 in HepG2 cells; assay type: cell-based, human
# Protocol: FIGS. 4A-4B: Effects of ALLN on Hsp70 turnover and synthesis rates in HepG2 cells. Confluent culture dishes were preincubated for 4 hours with serum-free MEM containing either 1.5% BSA alone (Control) or BSA plus 40 μg/ml of ALLN (ALLN). (A) The preincubated cells were radiolabeled with 3H-leucine (150 μCi/ml) in serum-free, leucine-free medium with/without ALLN for 20 min., washed 3 times with medium free of isotope and then chased in serum-free medium containing BSA with/without ALLN for up to 20 hours. At the indicated time points, cells were harvested and lysed. Samples were immediately stored in a -80° C. freezer. Immunoprecipitation of Hsp70 was performed as described in FIG. 1. Data at each time point were presented as means of cpm from duplicate dishes. (B) . […]
# FIGS. 8A-8C: Effects of ALLN on Hsp70 synthesis and turnover rates in HepG2 cells. […] Immunoprecipitates were analyzed on SDS-PAGE and fluorography (A) and also aliquoted for scintillation counting (B). […]
# HepG2 cells were preincubated for 4 hours in serum-free MEM and then radiolabeled with ^3 H-Leucine (150 μCi/ml) in a serum-free, leucine-free medium. […] Cell lysates containing equal amounts of trichloroacetic acid (TCA)-insoluble radioactivity were used for immunoprecipitations by incubating with individual monoclonal antibody (1 μg/ml) for 2.5 hours at 4° C. […]
# HSF1 = test: Western blot of steady-state HSF1 protein levels in HepG2 whole cell extracts; assay type: cell-based, human; settings: ALLN 40 μg/ml, 2 hours, with or without cycloheximide
# Protocol: FIGS. 6A-6B: ALLN affects the trimerization of HSF. HepG2 cells were treated with serum-free MEM containing 1.5% BSA for 2 hours at 37° C. without any additions (lane1), at 37 ° C. but containing 40μg/ml of ALLN in the medium (lane2), at 37° C. in a medium containing both ALLN and 50 μg/ml of cycloheximide (lane3) , at 42° C. alone (lane4), or at 42° C. plus cycloheximide in the medium (lane5). Cell lysates were prepared as described under Experimental Details. The lysates were either directly run on the SDS-PAGE (A) to show the steady-state protein levels of HSF1 or subjected to cross-linking with ethylene glycol bis sucrinimidylsuccinate (EGS) before running the gel (B) to show the oligomeric forms of HSF1. The proteins were then transfered to a nitrocellulose membrane and immunoblotted with anti-human HSF1 antibody. Arrows on the right side indicates the monomeric, dimeric or trimeric forms of HSF1, respectively. This experiment was repeated three times with identical results.
# For measurement of the steady-state HSF1 protein levels, whole cell extracts were prepared by lysing the cells directly with 2×SDS-sample buffer (Maniatis, et al., 1982). For chemical cross-linking experiments, whole-cell extracts were prepared as described (Mosser, et al., 1988). Briefly, the cold PBS-washed cell pellets were quickly and repeatedly frozen in liquid nitrogen. […]
smiles,measurement,setting,value
"CCCC[C@@H](C=O)NC(=O)[C@H](CC(C)C)NC(=O)[C@H](CC(C)C)NC(C)=O [ALLN, N-acetyl-leucyl-leucyl-norleucinal] (Ac-Leu-Leu-[Nle]-aldehyde)",Half life of newly synthesized Hsp70 in the presence of ALLN,"Hsp70; ALLN 40 μg/ml, pulse-chase, HepG2",about 6 hours
same,Increase in the half-life of Hsp70,Hsp70; ALLN versus no ALLN,3-4 fold
same,Steady-state levels of HSF1 in whole cell extracts,HSF1,not significantly affected
